For assay [1], the system named is C57L/J mice. Put plainly: Echocardiography: contractile reserve (isoproterenol response), myocardial performance index, IRT after irradiation. It counts as in vivo. The settings on record: irradiated mice; BH4 5 mg/kg oral once daily 6 days from 24 h post-IR. The method, then: Both male and female C57L/J wild-type 6-8-week-old mice were purchased from Jackson Laboratory (Bar Harbor, ME). The mice were housed with a 12:12 h light-dark schedule and access to water and food ad libitum. The experiments were conducted under the guidelines of laboratory animals for biomedical research published by the National Institutes of Health (rev. 2011). The study protocol was approved by the Institutional Animal Care and Use Committee of Virginia Commonwealth University.
(§1) Equal numbers of male and female mice were distributed to each group. While under ketamine/xylazine anesthesia (100 mg/kg and 10 mg/kg, respectively) mice received 5 Gy total body irradiation (TBI), immediately followed by a top-up dose of 6.5 Gy to the thorax, for a total thoracic dose of 11.5 Gy, using a Varian 21 EX LINAC (Palo Alto, CA). Twenty-four hours post-irradiation, mice were treated once daily for 6 days by oral gavage with 1 mg/kg sepiapterin or 5 mg/kg BH4 dissolved in water (FIG. 1).
All mice underwent transthoracic echocardiography at baseline (before irradiation (IR)), at 8, 30, 60, 90 and 180 days, under light anesthesia (30 mg/kg pentobarbital sodium). Echocardiography was performed with the Vevo770 imaging system (VisualSonics, Toronto, Ontario, Canada) and a 30-MHz probe. The heart was visualized in B-mode from parasternal short-axis and apical views. The left ventricular (LV) end-diastolic diameter (EDD), LV end-systolic diameter (ESD), LV anterior wall diastolic thickness (AWDT), and LV posterior wall diastolic thickness (PWDT), LV anterior wall systolic thickness (AWST), and LV posterior wall systolic thickness (PWST) were measured at M-mode, according to the American Society of Echocardiography recommendations. LV ejection fraction (EF), and LV mass were calculated from the measurements of wall thickness and chamber diameters. The LVEF was derived using the Teicholz formula (LVEF=[LVEDD3−LVESD3]/LVEDD3), as previously described. The transmitral LV outflow tract Doppler spectra (E, A, ET) was recorded from an apical four-chamber view, and the myocardial performance index (MPI) was calculated as the […] isovolumetric contraction time (ICT) and isovolumetric relaxation time (IRT) divided by the ejection time (ED. The investigators performing and reading the echocardiograms were blinded to the treatment allocation. A beta-adrenergic agonist, isoproterenol (Sigma Aldrich, St. Louis, MO, USA) 20 ng/mouse, was used to assess cardiac contractility in irradiated mice without SP treatment. Cardiac contractility (contractile reserve) was expressed as percentage change in LVEF measured at rest (LVEFr) and 3 min after isoproterenol injection (LVEFi) and calculated as [(LVEFi−LVEFr)/LVEFr]*100. Measurements of the contractile reserve were taken at baseline, 8, 30, 60, 90 and 180 days after IR. Echocardiogram assessment was performed by an operator blinded to treatment allocation.

Assay [2] concerns C57L/J mice. Put plainly: Survival over 180 days post IR (Kaplan Meyer). It is filed as in vivo. The settings on record: irradiated mice; oral BH4 starting 24 hours after radiation. The method, then:
as §1
To determine whether the improved cardiopulmonary function impacted overall survival the mice were followed over 180 days post IR.

Assay [3] has as its system C57L/J mice. Put plainly: Assessment of lung injury by breathing rate (MouseOx) after irradiation. It counts as in vivo. The settings on record: irradiated mice, 5 mg/kg BH4 for 6 days, vs vehicle. The method, then:
as §1
The breathing rate was measured every other week starting in week 6 using the Mouse Ox system (STARR Life Sciences Corp., Allison Park, PA). The animal was placed under ketamine/xylazine anesthesia and shaved in the area of analysis. 10 min post injection the animal was placed in a supine position with the sensor clipped to the upper thigh. The breathing rate was recorded for 3 min. The breathing rate was calculated using an algorithm in the Mouse Ox software.

For another assay, the system named is exosomal miRNAs. The assay is described as follows: Serum exosomal miRNA expression after irradiation. It is filed as in vivo, mice. The settings on record: irradiated mice; BH4 treatment (FIG. 6A). The method, then:
Blood was collected by cardiac puncture using EDTA vials. Blood samples were centrifuged 3,000×g for 25 minutes, and plasma fraction was aliquoted and saved in a vapor phase of liquid nitrogen. Exosomes were isolated from the plasma of mice at the time points shown in FIGS. 6A-6C using an Exosome isolation kit from 101Bio. Exosome concentrations were quantified by EXOCET Exosome Quantitation Kit (System Biosciences). Equal exosome number from 5 animals were combined for each time point, and total exosomal RNA was extracted by using miRNeasy Micro Kit (QIAGEN). For the miRNAs expression profiling the miRCURY LNA™ Universal RT microRNA PCR assay (QIAGEN) and ExiLENT SYBR® Green Maser Mix (QIAGEN) were used. The initial estimation of exosomal miRNAs expression was performed by using Serum/Plasma LNA™ miRNA PCR Panel (Cat. #YAHS-106Y. QIAGEN) on the QuantStudio 5 RT-PCR machine (Applied Biosystems).
The first group included let-7a-5p, miR-1, miR-106b-3p, miR-106b-5p, miR-126-3p, miR-181a-5p, miR-335-3p, and miR-335-5p. […] The second group included let-7g-5p, let-7i-5p, and miR-16-5p. There were no significant differences between males and females both in terms of exosomal miRNA expression altered by IR or the effects of sepiapterin on miRNA expression.

Entries after “also recorded” stand apart in the source; their conditions may differ.

As to `C[C@H](O)[C@H](O)[C@H]1CNc2[nH]c(N)nc(=O)c2N1` [BH4, Tetrahydrobiopterin], in the assay on C57L/J mice [1], the contractile reserve entry is given as “enhanced contractile reserve”; the “systolic and diastolic function” value was “improved systolic and diastolic function”. Further, the survival entry with C57L/J mice [2] was “increased survival”. The “development of lung injury” value with C57L/J mice [3] is on record as “significant delay in the development of lung injury”. For the same molecule, the “lung function (breathing rate)” value in the assay on C57L/J mice [3] (5 mg/kg) is “significantly reduced impairment of lung function at all points measured; also recorded: decreasing breathing frequency”. The “exosomal expression of miR-15b-3p, miR-106a-5p, miR-133b, miR-136-5p, miR-451a, miR-1, miR-335-3p, let-7d-3p, let-7c-5p” value in the assay on exosomal miRNAs was “increases in expression”.
